Molecules are shown by their SMILES.

human recombinant, purified wild type His-B-Raf protein kinase, sequence (P15056 whole entry): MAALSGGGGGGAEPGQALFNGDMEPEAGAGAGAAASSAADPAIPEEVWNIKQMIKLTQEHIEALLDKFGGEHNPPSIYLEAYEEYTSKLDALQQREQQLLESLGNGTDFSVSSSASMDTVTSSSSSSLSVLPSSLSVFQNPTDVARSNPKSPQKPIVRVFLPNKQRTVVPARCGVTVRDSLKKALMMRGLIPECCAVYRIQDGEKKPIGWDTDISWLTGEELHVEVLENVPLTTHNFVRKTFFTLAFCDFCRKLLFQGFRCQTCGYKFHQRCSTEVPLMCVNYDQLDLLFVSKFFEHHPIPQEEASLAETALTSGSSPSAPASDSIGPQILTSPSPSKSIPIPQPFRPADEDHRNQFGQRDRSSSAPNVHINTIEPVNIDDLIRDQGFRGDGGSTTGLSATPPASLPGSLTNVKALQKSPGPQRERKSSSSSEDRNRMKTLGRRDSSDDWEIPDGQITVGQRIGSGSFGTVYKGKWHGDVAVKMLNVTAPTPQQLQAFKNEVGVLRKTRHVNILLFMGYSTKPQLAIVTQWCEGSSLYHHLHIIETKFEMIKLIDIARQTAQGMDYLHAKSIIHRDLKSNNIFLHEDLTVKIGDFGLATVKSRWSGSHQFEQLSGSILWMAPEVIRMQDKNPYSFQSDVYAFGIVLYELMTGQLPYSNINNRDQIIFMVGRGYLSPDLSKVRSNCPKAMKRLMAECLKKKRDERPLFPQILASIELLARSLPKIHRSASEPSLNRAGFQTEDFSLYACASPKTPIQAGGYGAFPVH

The experiment concerns the target human recombinant, purified wild type His-B-Raf protein kinase (Homo sapiens, UniProt P15056). Kind of experiment: B-Raf In Vitro ELISA Assay. As to conditions: phosphorylation of MEK1; 2.5 nM B-Raf, 0.15 μM MEK1, 10 μM ATP; 1 hour preincubation at 25° C. It is filed as biochemical. As for the experimental part: B-Raf In Vitro ELISA Assay
Activity of human recombinant, purified wild type His-B-Raf protein kinase was determined in vitro using an enzyme-linked immunosorbent assay (ELISA) assay format, which measures phosphorylation of the B-Raf substrate, human recombinant, purified His-derived (detagged) MEK1. The reaction utilized 2.5 nM B-Raf, 0.15 μM MEK1 and 10 μM adenosine triphosphate (ATP) in 40 mM N-(2-hydroxyethyl)piperazine-N′-(2-ethanesulfonic acid hemisodium salt (HEPES), 5 mM 1,4-dithio-DL-threitol (DTT), 10 mM MgCl2, 1 mM ethylenediaminetetraacetic acid (EDTA) and 0.2 M NaCl (1×HEPES buffer), with or without compound at various concentrations, in a total reaction volume of 25 μl in 384 well plates. B-Raf and compound were preincubated in 1×HEPES buffer for 1 hour at 25° C. Reactions were initiated with addition of MEK1 and ATP in 1×HEPES buffer and incubated at 25° C. for 50 minutes and reactions stopped by addition of 10 μl 175 mM EDTA (final concentration 50 mM) in 1×HEPES buffer. 5 μl of the assay mix was then diluted 1:20 into 50 mM EDTA in 1×HEPES buffer, transferred to 384 well black high protein binding plates and incubated overnight at 4° C. Plates were washed in tris buffered saline containing 0.1% Tween20 (TBST), blocked with 50 μl Superblock (Pierce) for 1 hour at 25° C., washed in TBST, incubated with 50 μl rabbit polyclonal anti-phospho-MEK antibody (Cell Signaling) diluted 1:1000 in TBS for 2 hours at 25° C., washed with TBST, incubated with 50 μl goat anti-rabbit horseradish peroxidase-linked antibody (Cell Signaling) diluted 1:2000 in TBS for 1 hour at 25° C. and washed with TBST. 50 μl of fluorogenic peroxidase substrate (Quantablu—Pierce) was added and following incubation for 45-60 minutes, 50 ul QuantabluSTOP (Pierce) was added. Blue fluorescent product was detected at excitation 325 and emission 420 using a TECAN Ultra plate reader. Data was graphed and IC50s calculated using Excel Fit (Microsoft).
Background: In an ELISA, binding on a coated surface is turned into a signal by an enzyme label.
By IC50 is commonly meant the concentration that inhibits the measured activity by half. For `Cc1ccc(NC(=O)c2cccc(C(F)(F)F)c2)cc1-n1cnc2ccc(NCCCN(C)C)cc2c1=O` [Example 9, N-{3-[6-(3-Dimethylaminopropylamino)-4-oxo-4H-quinazolin-3-yl]-4-methylphenyl}-3-trifluoromethylbenzamide], the 50% inhibitory concentration (IC50) amounted to 0.535 µM. The value for `Cc1ccc(NC(=O)c2cccc(C(F)(F)F)c2)cc1-n1c(C)nc2ccc(N3CCOCC3)cc2c1=O` [Example 14, N-[4-Methyl-3-(2-methyl-6-morpholin-4-yl-4-oxo-4H-quinazolin-3-yl)phenyl]-3-trifluoromethylbenzamide] was 3.2 µM; that for `Cc1ccc(NC(=O)c2cccc(C(F)(F)F)c2)cc1-n1cnc2ccc(OCCN3CCOCC3)cc2c1=O` [Example 22, N-{4-Methyl-3-[6-(2-morpholinoethoxy)-4-oxo-4H-quinazolin-3-yl]phenyl}-3-trifluoromethylbenzamide] was 0.518 µM.

The record behind these values is US20080275022A1, “Substituted Quinazolones as Anti-Cancer Agents” (AstraZeneca AB, priority 2004, published 2008).
